Structures are written as SMILES. pEC50: −log10 of the molar value. Where “and” joins values, the source holds several entries; their conditions need not be identical. Equal values may be shown once.

One may read the pEC50 as −log10 of the EC50, conventionally taken in molar units.

Data set [1] has as its system HIV-1 NL4-3. Put plainly: Multi-round viral replication assay in SupT1-CCR5 cells, HIV-1 NL4-3. The format is cell-based. The settings on record: Human immunodeficiency virus 1, NL43, 168 h, supernatant vRNA 7 days post-infection, mean ± SD of three independent experiments, read-out: mean EC50 against HIV-1 NL4-3. On the procedure: (§1) Infectious stocks of stHIV-A19,[23] HIV-1 NL4-3, and SIVmac239 were produced in HEK-293T (RRID: CVCL_1926) cells transfected with full-length viral genome plasmids using the TransIT HEK-293 transfection reagent (Mirus Bio) according to the manufacturer’s instructions. Virus stock infectious titres were determined on TZM-bl reporter cells (RRID: CVCL_B478) as previously described.[26] For experiments using SupT1-CCR5 target cells (RRID: CVCL_X633),[27] cultures were maintained in RPMI 1640 medium supplemented with 10% foetal bovine serum (FBS), 2 mM glutamine, 100 U/ml penicillin, and 100 μg/ml streptomycin. […] Cells were then washed three times to remove input virus, counted, and cultured in triplicate in growth media containing serial threefold dilutions of LEN or no LEN (control). […] Culture supernatants were collected 7 days post-inoculation, clarified by centrifugation, and stored at −80 °C for later quantification of vRNA by quantitative reverse transcription polymerase chain reaction (qRT-PCR). […] The stHIV-A19 stock was quantified with a SYBR Green-based qPCR-based product-enhanced RT (PERT) assay using a purified reverse transcriptase (RT) protein standard, as previously described.[28] […] After 7 days, the virus in culture supernatants was quantified using the PERT assay. […]

In data set [2] the test system is stHIV-A19. Put plainly: Multi-round replication assay of stHIV-A19 in pigtail macaque PBMCs (PERT readout). Type of data set: cell-based, simian-tropic HIV-1. The settings on record: for mean EC95 against stHIV-A19 in pigtail macaque PBMC: PTM PBMCs, three donors, RT in supernatant at 7 days, calculated from EC50 with Hill coefficient 3.51. The method, then: Infectious stocks of stHIV-A19,[23] HIV-1 NL4-3, and SIVmac239 were produced in HEK-293T (RRID: CVCL_1926) cells transfected with full-length viral genome plasmids using the TransIT HEK-293 transfection reagent (Mirus Bio) according to the manufacturer’s instructions. Virus stock infectious titres were determined on TZM-bl reporter cells (RRID: CVCL_B478) as previously described.[26] For experiments using SupT1-CCR5 target cells (RRID: CVCL_X633),[27] cultures were maintained in RPMI 1640 medium supplemented with 10% foetal bovine serum (FBS), 2 mM glutamine, 100 U/ml penicillin, and 100 μg/ml streptomycin. SupT1-CCR5 cells were inoculated with stHIV-A19, HIV-1 NL4-3, or SIVmac239 at a multiplicity of infection (MOI) = 0.0125 and cultured at 37 °C for 4 h. Cells were then washed three times to remove input virus, counted, and cultured in triplicate in growth media containing serial threefold dilutions of LEN or no LEN (control). The concentration of DMSO (LEN vehicle) was maintained at 0.5% for all cultures. Culture supernatants were collected 7 days post-inoculation, clarified by centrifugation, and stored at −80 °C for later quantification of vRNA by quantitative reverse transcription polymerase chain reaction (qRT-PCR). Primary human peripheral blood mononuclear cells (PBMCs) from anonymous HIV-negative donors were isolated from leukopaks obtained from the New York Blood Center for experiments using primary human and PTM PBMC. […] The stHIV-A19 stock was quantified with a SYBR Green-based qPCR-based product-enhanced RT (PERT) assay using a purified reverse transcriptase (RT) protein standard, as previously described.[28] […] After 7 days, the virus in culture supernatants was quantified using the PERT assay. […] The EC95 for LEN against stHIV-A19 was then calculated from its corresponding EC50 values using the ECanything equation: ECF = EC50 × (F/100-F)^1/n, where F equals the percent response (e.g., 95) and n equals the Hill coefficient for LEN (n = 3.51) as previously described.[16]

In data set [3] the test system is stHIV-A19. Kind of data set: Multi-round viral replication assay in SupT1-CCR5 cells, stHIV-A19. The note with it: Human immunodeficiency virus 1, 168 h, supernatant vRNA 7 days post-infection, mean ± SD of three independent experiments, read-out: mean EC50 against stHIV-A19. The format is cell-based, simian-tropic HIV-1. The method, then:
as §1

The test system of data set [4] is SHIVs. Also noted: method as in PMID 34875675. The settings on record: SHIVs contain SIV CA derived from SIVmac239; cited from earlier work.

Turning to `CC(C)(C#Cc1ccc(-c2ccc(Cl)c3c(NS(C)(=O)=O)nn(CC(F)(F)F)c23)c([C@H](Cc2cc(F)cc(F)c2)NC(=O)Cn2nc(C(F)(F)F)c3c2C(F)(F)[C@@H]2C[C@H]32)n1)S(C)(=O)=O` [LEN, Lenacapavir], the negative-log EC50 (pEC50) in data set [1] is 10.07; in data set [3] it was 10.04. Moreover, the “plasma protein binding-adjusted EC95 (PA-EC95) against stHIV-A19 in PTMs” value in data set [2] (EC95 in PTM PBMC adjusted by 9.7-fold plasma shift) was 1.46 (±0.07 SD) nM and 1.46 nM. Moreover, the “mean EC95 against stHIV-A19 in pigtail macaque PBMC” value in data set [2] was 149 ± 7 pM; in data set [2] (listed as Lenacapavir) it was 149 (±7 SD) pM. Also, in data set [4], the “reduced sensitivity of SHIVs compared with HIV-1” value is 5–8 fold.

Values taken from article PMC10470178, “Long-acting lenacapavir protects macaques against intravenous challenge with simian-tropic HIV” (eBioMedicine, 2023).
